Reference: patent publication US9221816B2, “2-oxo-2,3-dihydro-indoles for the treatment of CNS disorders” (Hoffmann-La Roche Inc., priority 2012, dated 2015)
Entries after “also recorded” stand apart in the source; their conditions may differ.

Key:
[1] = test system: L-687,414-induced hyperlocomotion; experiment: L-687,414-induced hyperlocomotion (Digiscan locomotor activity); format: in vivo, mouse; settings: mice; for ID50 po: p.o. 15 min before s.c. 50 mg/kg L-687,414, dose producing 50% inhibition of hyperlocomotion; for Inhibition, ip: dose ip 30, at the same time as s.c. 50 mg/kg L-687,414, % inhibition of horizontal activity
Procedure: The authors described that hyperlocomotion induced by L-687,414 was inhibited by a series of known antipsychotic drugs. […] These findings predict antipsychotic activity for the present compounds, making them useful for the treatment of schizophrenia and other disorders as described above.
The described compounds of formula I and I-1 reduce L-687,414-induced hyperlocomotion. This was assessed by using a computerized Digiscan 16 Animal Activity Monitoring System (Omnitech Electronics, Columbus, Ohio) to quantify locomotor activity. Animals were kept under a 12 h light/dark cycle and experiments were performed during the light period. Each activity monitoring chamber consisted of a Plexiglas box (41×41×28 cm; W×L×H) with sawdust bedding on the floor surrounded by invisible horizontal and vertical infrared sensor beams. The test boxes were divided by a Plexiglas cross providing each mouse with 20×20 cm of moving space. Cages were connected to a Digiscan Analyzer linked to a computer that constantly collected the beam status information. Records of photocell beam interruptions for individual animals were taken every 5 min over the duration of the experimental session and the sum of the first 6 periods was used as the final parameter. Compounds were administered either p.o. 15 min before a s.c. injection of 50 mg/kg of L-687,414, or i.p. at the same time as a s.c. injection of 50 mg/kg of L-687,414. Mice were then transferred from their home cage to the recording chambers for a 15-min habituation phase allowing free exploration of the new environment. Horizontal activity was then recorded for a 30-min time period. The % inhibition of L-687,414-induced hyperlocomotion was calculated according to the equation: ((Veh+L-687,414 horizontal activity−drug+L-687,414 horizontal activity)/Veh+L-687,414 horizontal activity)×100
ID50 values, defined as doses of each compound producing 50% inhibition of L-687,414-induced hyperlocomotion, were calculated by linear regression analysis of a dose-response data using an Excel-based computer-fitting program.
As data was not presupposed to be normally distributed, groups treated with test compounds were statistically compared with the control (vehicle-treated) group using one-tailed Mann Whitney U tests. In statistics, the Mann-Whitney U test (also called the Mann-Whitney-Wilcoxon (MWW) or Wilcoxon rank-sum test) is a non-parametric statistical hypothesis test for assessing whether one of two samples of independent observations tends to have larger values than the other. It is one of the most well-known non-parametric significance tests. […] P values given in table 1 are one-tailed since only decreases in locomotion were expected and tested for (Mann, H. B., Whitney, D. R. (1947), “On a Test of Whether one of Two Random Variables is Stochastically Larger than the Other”, Annals of Mathematical Statistics, 18 (1), 50-60).

[2] = test system: behaviors of compound-treated mice; experiment: SmartCube behavioral signature, similarity to atypical antipsychotics; format: in vivo; settings: for discrimination rate vs Clozapine / discrimination rate vs Olanzapine / discrimination rate vs Risperidone: SmartCube, i.p. 15 minutes before test, 0.70 or lower = similar; for SmartCube signature: i.p., mice, classification by similarity to drug classes
From the text: In addition to the reversal of L-687,414 induced hyperlocomotion experiment as described above, some compounds of the present invention have been tested in SmartCube®, an automated system in which the behaviors of compound-treated mice in response to multiple challenges are captured by digital video and analyzed with computer algorithms (Roberds et al., Frontiers in Neuroscience, 2011, Vol. 5, Art. 103, 1-4). In this way, the neuro-pharmacological effects of a test compound can be predicted by similarity to major classes of compounds, such as antipsychotics, anxiolytics and antidepressants.
SmartCube® was used to compare the behavioral signature of a test compound to a database of behavioral signatures obtained from a large set of clinically approved reference drugs, grouped per indications. In this way, the neuro-pharmacological effects of a test compound can be predicted by similarity to major classes of compounds, such as antipsychotics, anxiolytics and antidepressants. This approach is ideally suited to screen collections of existing drugs or drug candidates with previously unknown neuropharmacology, which could expedite the development of new and unexpected treatments for psychiatric disorders.
Some compounds of the present invention were injected i.p. at different doses 15 minutes before the test. At least 8 mice were used in each treatment group. Digital videos of the subjects were processed with computer vision algorithms to extract over 2000 dependent measures including frequency and duration of many different behavioral states. The results of the classifications are presented as bar charts for each dose (mg/kg), the Y-axis indicates the relative probability that the test compound will show efficacy in the specific CNS indication.
For comparison, the behavioral signature of the atypical antipsychotic risperidone is shown in FIG. 3 (for behavioral signatures of further atypical antipsychotic, e.g. clozapine, olanzapine, see also Roberds et al., Frontiers in Neuroscience, 2011, Vol. 5, Art. 103, 1-4). Compounds of the present invention show similar signatures to those of atypical antipsychotics. An independent analysis was performed on the unclassified data to determine the similarity of the example compounds to active doses of known atypical antipsychotics. For this analysis, we use discrimination rate as the measure of separability between the two drugs, i.e. one drug's “distinguishability” from another. A rate equal to 50% (or 0.5) corresponds to zero distinguishability. […] In most cases, the example compounds show a similarity to risperidone, clozapine and olanzapine with a discrimination rate of ≦0.70.

SMILES: CN1C(=O)C(C)(C)c2ccc(NC(=O)c3ccncc3F)cc21 [Example 29, 3-Fluoro-N-(1,3,3-trimethyl-2-oxoindolin-6-yl)isonicotinamide]
- ID50 po [1]: 1.08 mg/kg
- discrimination rate vs Clozapine [2]: 0.63
- discrimination rate vs Olanzapine [2]: 0.58
- discrimination rate vs Risperidone [2]: 0.56
- SmartCube signature [2]: similarity to atypical antipsychotics; also recorded: profile similar to that of atypical antipsychotics

SMILES: CC1(C)C(=O)N(C2CC2)c2cc(NC(=O)c3ccncc3Cl)ccc21 [Example 30, 3-Chloro-N-(1-cyclopropyl-3,3-dimethyl-2-oxoindolin-6-yl)isonicotinamide]
- ID50 po [1]: 0.97 mg/kg
- discrimination rate vs Clozapine [2]: 0.68
- discrimination rate vs Olanzapine [2]: 0.67
- discrimination rate vs Risperidone [2]: 0.72
- SmartCube signature [2]: similarity to atypical antipsychotics; also recorded: profile similar to that of atypical antipsychotics

SMILES: Cc1cc(C(=O)Nc2ccc3c(c2)N(C2CC2)C(=O)C32CC2)ccn1 [Example 60, N-(1′-Cyclopropyl-2′-oxospiro[cyclopropane-1,3′-indoline]-6′-yl)-2-methylisonicotinamide]
- Inhibition, ip [1]: 63.2%

SMILES: CC1(C)C(=O)N(C2COC2)c2cc(NC(=O)c3ccncc3Cl)ccc21 [Example 62, 3-Chloro-N-(3,3-dimethyl-1-(oxetan-3-yl)-2-oxoindolin-6-yl)isonicotinamide]
- Inhibition, ip [1]: 61.7%

SMILES: CC1(C)C(=O)N(C2COC2)c2cc(NC(=O)c3cccnc3)ccc21 [Example 64, N-(3,3-Dimethyl-1-(oxetan-3-yl)-2-oxoindolin-6-yl)nicotinamide]
- Inhibition, ip [1]: 65.9%

SMILES: CC1(C)C(=O)N(CCCOC2CC2)c2cc(NC(=O)c3ccncc3F)ccc21 [Example 65, N-(1-(3-Cyclopropoxypropyl)-3,3-dimethyl-2-oxoindolin-6-yl)-3-fluoroisonicotinamide]
- Inhibition, ip [1]: 91.1%

SMILES: CC1(C)C(=O)N(CCO)c2cc(NC(=O)c3ccncc3F)ccc21 [Example 68, 3-Fluoro-N-(1-(2-hydroxyethyl)-3,3-dimethyl-2-oxoindolin-6-yl)isonicotinamide]
- Inhibition, ip [1]: 89.1%

SMILES: CC1(C)C(=O)N(CCCO)c2cc(NC(=O)c3ccncc3F)ccc21 [Example 69, 3-Fluoro-N-(1-(3-hydroxypropyl)-3,3-dimethyl-2-oxoindolin-6-yl)isonicotinamide]
- Inhibition, ip [1]: 82.4%

SMILES: CC1(C)C(=O)Nc2cc(NC(=O)c3ccncc3F)ccc21 [Example 72, N-(3,3-Dimethyl-2-oxoindolin-6-yl)-3-fluoroisonicotinamide]
- ID50 po [1]: 2.22 mg/kg

SMILES: CC1(C)C(=O)N(CCCO)c2cc(NC(=O)c3ccncc3Cl)ccc21 [Example 73, 3-Chloro-N-(1-(3-hydroxypropyl)-3,3-dimethyl-2-oxoindolin-6-yl)isonicotinamide]
- Inhibition, ip [1]: 51.2%

SMILES: CC1(C)C(=O)N(CC(F)(F)F)c2cc(NC(=O)c3ccncc3F)ccc21 [Example 74, N-(3,3-Dimethyl-2-oxo-1-(2,2,2-trifluoroethyl)indolin-6-yl)-3-fluoroisonicotinamide]
- Inhibition, ip [1]: 76.6%

SMILES: CC1(C)C(=O)N(C2CC2)c2cc(NC(=O)c3ccncc3)ncc21 [Example 79, N-(1-Cyclopropyl-3,3-dimethyl-2-oxo-2,3-dihydro-1H-pyrrolo[3,2-c]pyridin-6-yl)isonicotinamide]
- ID50 po [1]: 0.94 mg/kg

SMILES: Cc1cc(C(=O)Nc2cc3c(cn2)C(C)(C)C(=O)N3C2CC2)ccn1 [Example 81, N-(1-Cyclopropyl-3,3-dimethyl-2-oxo-2,3-dihydro-1H-pyrrolo[3,2-c]pyridin-6-yl)-2-methylisonicotinamide]
- Inhibition, ip [1]: 53.1%

SMILES: CC1(C)C(=O)N(C2CC2)c2cc(NC(=O)c3ccnc(Cl)c3)ncc21 [Example 83, 2-Chloro-N-(1-cyclopropyl-3,3-dimethyl-2-oxo-2,3-dihydro-1H-pyrrolo[3,2-c]pyridin-6-yl)isonicotinamide]
- Inhibition, ip [1]: 79.6%

SMILES: CC1(C)C(=O)N(C2CC2)c2cc(NC(=O)c3ccno3)ncc21 [Example 85, N-(1-Cyclopropyl-3,3-dimethyl-2-oxo-2,3-dihydro-1H-pyrrolo[3,2-c]pyridin-6-yl)isoxazole-5-carboxamide]
- Inhibition, ip [1]: 74.9%

SMILES: Cn1nccc1C(=O)Nc1cc2c(cn1)C(C)(C)C(=O)N2C1CC1 [Example 86, N-(1-Cyclopropyl-3,3-dimethyl-2-oxo-2,3-dihydro-1H-pyrrolo[3,2-c]pyridin-6-yl)-1-methyl-1H-pyrazole-5-carboxamide]
- Inhibition, ip [1]: 69%

SMILES: COc1ncc(C(=O)Nc2cc3c(cn2)C(C)(C)C(=O)N3C2CC2)cn1 [Example 88, N-(1-Cyclopropyl-3,3-dimethyl-2-oxo-2,3-dihydro-1H-pyrrolo[3,2-c]pyridin-6-yl)-2-methoxypyrimidine-5-carboxamide]
- ID50 po [1]: 6.11 mg/kg
